The subject of the assay is P388 leukemia ip, CD2F1 mice, survival T/C. The assay can be described thus: NCI In Vivo Anticancer Drug Screen. Data for tumor model P388 Leukemia (intraperitoneal) in CD2F1 (CDF1) mice. To be noted: endpoint: median survival time, higher = longer survival. In outline:
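Mice carrying the transplanted tumor received test compound or vehicle. Survival was recorded in each group, and the value is the treated-group measurement divided by that of the vehicle-treated control group.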

Where [1] appears, read: dose: 6.25 mg/kg/injection, schedule: Q01DX005 (ip), vehicle: Klucel (hydroxypropylcellulose) (HPC).
[2] abbreviates: dose: 100.0 mg/kg/injection, schedule: Q01DX009 (ip), vehicle: saline.
Setting [3] is: dose: 200.0 mg/kg/injection, schedule: Q01DX009 (ip), vehicle: saline.
Setting [4] is: dose: 50.0 mg/kg/injection, schedule: Q01DX009 (ip), vehicle: saline with Tween-80.
Where [5] appears, read: dose: 25.0 mg/kg/injection, schedule: Q01DX009 (ip), vehicle: other.
Where [6] appears, read: dose: 50.0 mg/kg/injection, schedule: Q01DX009 (ip), vehicle: other.
Where [7] appears, read: dose: 50.0 mg/kg/injection, schedule: Q01DX009 (ip), vehicle: Klucel (hydroxypropylcellulose) (HPC).
[8] abbreviates: dose: 100.0 mg/kg/injection, schedule: Q01DX009 (ip), vehicle: Klucel (hydroxypropylcellulose) (HPC).
[9] abbreviates: dose: 200.0 mg/kg/injection, schedule: Q01DX009 (ip), vehicle: Klucel (hydroxypropylcellulose) (HPC).
Setting [10] is: dose: 200.0 mg/kg/injection, schedule: Q01DX001 (ip), vehicle: saline.
Where [11] appears, read: dose: 100.0 mg/kg/injection, schedule: Q01DX009 (ip), vehicle: saline with Tween-80.
The mark [12] stands for this setting: dose: 200.0 mg/kg/injection, schedule: Q01DX009 (ip), vehicle: saline with Tween-80.

The structures appear in SMILES notation. Values joined by “and” are separate entries in the source; they are usually repeats but may differ in a detail not shown here. Equal values may be shown once. Toxic doses and inconclusive results are not listed.

19 compounds from PubChem BioAssay AID330 (DTP/NCI, 2004) can be followed below.

As to `O=C1c2ccccc2C=c2c1nc1c(O)ccc3cccc2c31`, the T/C is 101 % of control under setting [1]; 100 % of control (dose: 12.5 mg/kg/injection, schedule: Q01DX005 (ip), vehicle: Klucel (hydroxypropylcellulose) (HPC)); 111 % of control (dose: 25.0 mg/kg/injection, schedule: Q01DX005 (ip), vehicle: Klucel (hydroxypropylcellulose) (HPC)); 97 % of control (dose: 50.0 mg/kg/injection, schedule: Q01DX005 (ip), vehicle: Klucel (hydroxypropylcellulose) (HPC)).

Take `[CH3][Sn]([CH3])([Cl])[Cl].c1ccc(-c2nnc(-c3ccccn3)nc2-c2ccccc2)cc1`: the T/C is, setting by setting: (dose: 60.0 mg/kg/injection, schedule: Q01DX005 (ip), vehicle: Klucel (hydroxypropylcellulose) (HPC)) 95 % of control; (dose: 120.0 mg/kg/injection, schedule: Q01DX005 (ip), vehicle: Klucel (hydroxypropylcellulose) (HPC)) 94 % of control; (dose: 240.0 mg/kg/injection, schedule: Q01DX005 (ip), vehicle: Klucel (hydroxypropylcellulose) (HPC)) 89 % of control.

In the case of `CC/C(=N/NS(=O)(=O)c1ccc(C)cc1)c1ccc(C(C)(C)C)cc1`, the T/C by setting is: (dose: 50.0 mg/kg/injection, schedule: Q01DX009 (ip), vehicle: saline) 99 % of control and 96 % of control; under setting [2], 102 % of control; under setting [3], 102 % of control and 87 % of control.

As for `O=[N+]([O-])c1ccc(NS(=O)(=O)c2cccs2)c([N+](=O)[O-])c1`, the T/C by setting is: (dose: 12.5 mg/kg/injection, schedule: Q01DX009 (ip), vehicle: saline with Tween-80) 105 % of control; (dose: 25.0 mg/kg/injection, schedule: Q01DX009 (ip), vehicle: saline with Tween-80) 103 % of control; under setting [4], 108 % of control.

In the case of `C1CCC2(CC1)NN=C1CCCCC12` (stereo unspecified), the T/C (dose: 12.5 mg/kg/injection, schedule: Q01DX009 (ip), vehicle: other) is 101 % of control; the T/C under setting [5] was 110 % of control; the T/C under setting [6] was 104 % of control; the T/C (dose: 100.0 mg/kg/injection, schedule: Q01DX009 (ip), vehicle: other) was 106 % of control; the T/C (dose: 200.0 mg/kg/injection, schedule: Q01DX009 (ip), vehicle: other) was 116 % of control.

In the case of `COc1cc2c(cc1OC)C(C)(C)N(Cc1ccccc1)C(C)C2(C)C` (stereo unspecified), the T/C (dose: 3.12 mg/kg/injection, schedule: Q01DX009 (ip), vehicle: Klucel (hydroxypropylcellulose) (HPC)) was 105 % of control; the T/C (dose: 6.25 mg/kg/injection, schedule: Q01DX009 (ip), vehicle: Klucel (hydroxypropylcellulose) (HPC)) is 105 % of control; the T/C (dose: 12.5 mg/kg/injection, schedule: Q01DX009 (ip), vehicle: Klucel (hydroxypropylcellulose) (HPC)) is 114 % of control; the T/C (dose: 25.0 mg/kg/injection, schedule: Q01DX009 (ip), vehicle: Klucel (hydroxypropylcellulose) (HPC)) is 107 % of control; the T/C under setting [7] is 112 % of control.

On to `CCOC(=O)NN(C(=O)OCC)c1c(NC)n(C)c(=O)n(C)c1=O`, for which the T/C under setting [7] was 100 % of control, the T/C under setting [8] is 106 % of control and the T/C under setting [9] is 89 % of control.

For the compound `OCCCC1CCCCN1` (stereo unspecified), the T/C by setting is: (dose: 50.0 mg/kg/injection, schedule: Q01DX001 (ip), vehicle: saline) 107 % of control; under setting [10], 100 % of control.

As to `Nc1nc(N)nc(-c2cccnc2)n1`, the T/C was 109 % of control (dose: 100.0 mg/kg/injection, schedule: Q01DX001 (ip), vehicle: saline); 118 % of control under setting [10]; 100 % of control (dose: 400.0 mg/kg/injection, schedule: Q01DX001 (ip), vehicle: saline).

Regarding `CCOC(=O)C(=CNC(C)(C)C)C(=O)OCC`, the T/C under setting [4] was 106 % of control, the T/C under setting [11] is 115 % of control and the T/C under setting [12] was 100 % of control.

Regarding `CNC(=S)NNc1ccc(Cl)c(Cl)c1`, the T/C runs as follows: under setting [5], 112 % of control; under setting [6], 108 % of control.

For `C/C=C(\C)C(=O)OC1CCC2(C)C3CCC4C5(O)CC(O)C6(O)C(CN7CC(C)CCC7C6(C)O)C5(O)CC42OC13O` (stereo unspecified), the T/C (dose: 1.56 mg/kg/injection, schedule: Q01DX005 (ip), vehicle: Klucel (hydroxypropylcellulose) (HPC)) is 98 % of control; the T/C (dose: 1.56 mg/kg/injection, schedule: Q01DX005 (ip), vehicle: saline) is 96 % of control; the T/C (dose: 3.12 mg/kg/injection, schedule: Q01DX005 (ip), vehicle: Klucel (hydroxypropylcellulose) (HPC)) is 106 % of control; the T/C (dose: 3.12 mg/kg/injection, schedule: Q01DX005 (ip), vehicle: saline) is 96 % of control; the T/C under setting [1] was 109 % of control and 91 % of control; the T/C (dose: 6.25 mg/kg/injection, schedule: Q01DX005 (ip), vehicle: saline) was 96 % of control.

Consider `O=c1cc[nH]c(=O)[nH]1`, for which the T/C reads like this: (dose: 32.0 mg/kg/injection, schedule: Q01DX009 (ip), vehicle: Klucel (hydroxypropylcellulose) (HPC)) 99 % of control and 106 % of control; (dose: 32.0 mg/kg/injection, schedule: Q01DX009 (ip), vehicle: saline with Tween-80) 114 % of control; (dose: 64.0 mg/kg/injection, schedule: Q01DX009 (ip), vehicle: Klucel (hydroxypropylcellulose) (HPC)) 98 % of control and 100 % of control; (dose: 64.0 mg/kg/injection, schedule: Q01DX009 (ip), vehicle: saline with Tween-80) 100 % of control; under setting [2], 98 % of control; (dose: 128.0 mg/kg/injection, schedule: Q01DX009 (ip), vehicle: Klucel (hydroxypropylcellulose) (HPC)) 99 % of control and 102 % of control. For the same compound, the T/C (dose: 128.0 mg/kg/injection, schedule: Q01DX009 (ip), vehicle: saline with Tween-80) is 95 % of control; the T/C under setting [3] is 100 % of control; the T/C (dose: 256.0 mg/kg/injection, schedule: Q01DX009 (ip), vehicle: Klucel (hydroxypropylcellulose) (HPC)) is 100 % of control and 109 % of control; the T/C (dose: 256.0 mg/kg/injection, schedule: Q01DX009 (ip), vehicle: saline with Tween-80) was 100 % of control; the T/C (dose: 400.0 mg/kg/injection, schedule: Q01DX009 (ip), vehicle: saline) is 102 % of control; the T/C (dose: 512.0 mg/kg/injection, schedule: Q01DX009 (ip), vehicle: Klucel (hydroxypropylcellulose) (HPC)) is 108 % of control and 109 % of control. In addition, where the note is “dose: 512.0 mg/kg/injection, schedule: Q01DX009 (ip), vehicle: saline with Tween-80”, the T/C was 97 % of control.

On to `Nc1nc(N)c2nc3c(ccc4ccccc43)nc2n1`, for which the T/C by setting is: (dose: 60.0 mg/kg/injection, schedule: Q01DX005 (ip), vehicle: saline with Tween-80) 94 % of control; (dose: 120.0 mg/kg/injection, schedule: Q01DX005 (ip), vehicle: saline with Tween-80) 96 % of control; (dose: 240.0 mg/kg/injection, schedule: Q01DX005 (ip), vehicle: saline with Tween-80) 104 % of control.

In the case of `Cc1cn[nH]c(=O)c1`, the T/C was 99 % of control under setting [4], 99 % of control under setting [11] and 99 % of control under setting [12].

As for `O=S(=O)(O)CC[S][Sn]([S]CCS(=O)(=O)O)([c]1ccccc1)[c]1ccccc1`, where the note is “dose: 3.75 mg/kg/injection, schedule: Q01DX005 (ip), vehicle: Klucel (hydroxypropylcellulose) (HPC)”, the T/C is 153 % of control.

For `Nc1nnc2nc(CC(=O)c3ccc4ccccc4c3)c(=O)[nH]n12`, the T/C was 95 % of control (dose: 60.0 mg/kg/injection, schedule: Q01DX005 (ip), vehicle: saline); 100 % of control (dose: 120.0 mg/kg/injection, schedule: Q01DX005 (ip), vehicle: saline); 103 % of control (dose: 240.0 mg/kg/injection, schedule: Q01DX005 (ip), vehicle: saline).

`CCOC(=O)C1(c2ccccc2)CCCN(C)CC1` (stereo unspecified): the T/C is 107 % of control (dose: 25.0 mg/kg/injection, schedule: Q04DX003 (ip), vehicle: saline); 107 % of control (dose: 50.0 mg/kg/injection, schedule: Q04DX003 (ip), vehicle: saline); 98 % of control (dose: 100.0 mg/kg/injection, schedule: Q04DX003 (ip), vehicle: saline).

With `COc1ccc(C2NC(=S)NC(=O)C2C#N)cc1OC` (stereo unspecified), the T/C is 98 % of control under setting [7], 98 % of control under setting [8] and 95 % of control under setting [9].
